Holding throughout (assay type): cell-based, human
The test system of assay [1] is mature dendritic cells (mDC). The assay can be described thus: Phagocytosis of Staphylococcus aureus particles by mDC co-cultured with ASCs. The settings on record: NAC-pretreated ASCs, non-contact co-culture (FIG. 12). As for the experimental part: After differentiation in monoculture or co-culture in vitro (the differentiation conditions, including the cytokines used, concentrations and times of differentiation, are provided in Example 7), macrophages and mDC were harvested using 0.05% Trypsin-EDTA for 10 minutes at 37° C. The phagocytic potential of polarized macrophages or mDC was assessed using pHRodo Red-conjugated S. aureus particles (Life Technologies #A10010) following manufacturer's instructions. Briefly, 50,000 mDC were transferred to a 96-well U bottom wells (Corning #3799) and the cells were rested for 60 minutes in RPMIc. Lyophilized pHRodo conjugated particles were reconstituted in 1 mL of RPMIc per vial prior to use, and particles were sonicated for 5 minutes at 20% amplitude. Then, 50 μL of pHRodo […] were added per well and the cells were incubated for 60 minutes in normoxia at 37° C. Afterwards, phagocytosis was stopped on ice and cells were washed and stained with 5 μL 7-aminoactinomycin D (7AAD) prior to FACS analysis in Fortessa cytometer (BD). Negative controls for phagocytosis were cells without pHRodo reagent. Results were analysed in FlowJo software. The intensity of the fluorescence in the PE channel is proportional to the amount of bacterial particles phagocytosed per cell.

Assay [2] deals with ASCs. The experiment in a line: ASC proliferation assay: viable cell density (trypan blue count) after thaw of pretreated ASCs. The settings on record: for number of viable cells: ASCs pretreated with 6 mM NAC before freezing. On the procedure: ASCs from donor A were thawed by warming the vials in a 37° C. bath and diluting the freezing medium containing DMSO with fresh complete DMEM (DMEM/F-12 media—GlutaMAX™-I, Gibco, supplemented with 100 μg/mL penicillin/streptomycin and 10% FBS). Cells were centrifuged at 450 g for 6 minutes at room temperature to eliminate leftover DMSO and plated in T-175 flasks at 20.000 cells/cm^2 in complete DMEM. 24 hours post-thaw, the cells were treated with the suitable concentrations of the compounds indicated in the table below for 24 hours: Following the pretreatment step, the medium was removed, the cells were washed with PBS and trypsinized using trypsin-EDTA 0.25% (ThermoFisher) for 8 minutes at 37° C. After trypsin inactivation with complete DMEM, cells were harvested and centrifuged prior to resuspension in freezing medium (FBS with 10% DMSO), and frozen into 500,000 or 1 million cells per vial and stored in liquid nitrogen for further use. Specifically, the cells were frozen at −80° C. for 24 hours in a Cool Cell® device (BioCision) and then transferred to a liquid nitrogen storage container. All experiments were performed in incubators and 37° C., 5% CO2. ASCs pretreated with NAC according to the methods described in Example 2 from donor A or donor B final drug substance (FDS) were thawed by warming the vials in a 37° C. bath and quickly diluting the freezing medium containing DMSO (FBS with 10% DMSO) with fresh complete DMEM. Cells were centrifuged at 450 g for 6 minutes at room temperature to eliminate leftover DMSO, and plated in P6-well plates (Falcon #353046) in triplicates at […] in 5 mL of complete DMEM per well. Cells were washed with 1×PBS and trypsinized using trypsin-EDTA 0.25% (ThermoFisher) for 8 minutes at 37° C. After trypsin inactivation using complete DMEM, cells were harvested, centrifuged and resuspended in fresh DMEM; triplicate wells were unified as a single sample for counting purposes. Cells were counted in triplicates at 24 hours, 96 hours and 7 days after plating using an Invitrogen Countess Automated Cell Counter (Invitrogen) and adding trypan blue as a viability stain (FIG. 4A). The calculation of cell density was done using the count of viable ASC (negative for trypan blue) per surface unit (cm^2).

The subject of assay [3] is mature dendritic cells (mDC). The experiment in a line: Co-culture of monocytes with ASCs: mDC differentiation, activation clusters (microscopy). The note with it: NAC-pretreated ASCs, donors A and B, transwell co-culture (FIGS. 10, 11). As for the experimental part: Frozen vials of PBMCs were thawed, counted and CD14^+ CD16^− monocytes were isolated using the Dynabeads Untouched Human Monocytes kit (Dynal #11350D), following the manufacturer's instructions.
Isolated CD14^+ CD16^− monocytes (see above) were plated in 5 mL of RPMIc at 1.5 million cells per 6-well (Falcon #353046), in normoxia. The following factors were added for differentiation into non-polarized M0 macrophages or further polarization into M1, M2 macrophages and mature dendritic cells (mDC) populations in monocultures (based on several publications, including Beyer et al., PLoS One (2012) 7(9): e45466; Erbel et al., J. Vis. Exp. (2013) 76: e50332; Zhou et al, 2014; Tarique et al, American Journal of Respiratory Cell and Molecular Biology 2015; 53(5):676-688.
Immature DC (iDC): RPMIc+5 ng/mL GM-SCF+10 ng/mL IL-4 for 5 days Maturation of DC (mDC): at day 5, add 40 ng/mL LPS (i.e. add 500 μL/well of RPMIc supplemented with 400 ng/mL LPS to the pre-existing media). Human recombinant GM-CSF (#100-22B) and IL-4 (#200-04) were from Peprotech. LPS (#L8274) was from SIGMA. The addition of GM-C SF and IL4 mediates the differentiation to immature dendritic cells (iDC); 5 days later addition of LPS induces the maturation of iDCs to mDCs, and after 2 days the phenotype and function of these mature DC were analysed in the presence or absence of the ASC. Co-Culture Experiments with ASCs […]

Assay [4] concerns ASCs. The experiment in a line: ASC identity assay by flow cytometry (CD29, CD73, CD90, CD105). The note with it: 6 mM NAC pretreatment; two weeks in culture post-thawing; donor A (FIG. 7). A general note: Flow cytometry measures light scatter and fluorescence of single cells or particles in a stream.

Take `CC(=O)N[C@@H](CS)C(=O)O` [NAC, N-Acetylcysteine]: the “ability of ASCs to increase phagocytosis potential of mDCs” value in assay [1] is “did not alter their ability to increase the phagocytosis potential of mDCs”. In addition, in the assay with ASCs [2] (6 mM NAC pretreatment, 24 hours and 4 days post-thaw), the “number of cells counted versus non-treated control” value is “increased the number of cells counted at 24 hours and 4 days”. Also, the “cell number by cell density versus non-treated” value in the assay on ASCs [2] (6 mM NAC pretreatment, 24 hours post-seeding after thaw (FIG. 3)) is reported as “increased cell numbers”. In the assay on ASCs [2] (6 mM NAC pretreatment, donor A and donor B, from 24 hours post-seeding, maintained for a week (FIG. 5)), the “cell numbers versus non-treated, two donors” value is “increase in cell numbers”. In the assay with ASCs [2] (ASCs pretreated with 6 mM NAC (FIG. 4A), non-treated cells not recovered at 1 day), the “post-thaw recovery (viable adhered cell number over seeding density)” value was “recovered after 1 day of post-thaw culture”. Further, the “number of viable cells” value is recorded as ~5,000 cells/cm^2 in the assay with ASCs [2] (1 day of culture post-thaw (FIG. 4A)) and ~12,500 cells/cm^2 in the assay on ASCs [2] (4 days of culture post-thaw (FIG. 4A)). Also, in the assay with ASCs [2] (ASCs pretreated with 6 mM NAC, between days 1 and 4 of post-thaw culture), the “improvement of growth rate relative to non-treated cells” value is reported as “about 1.25 fold”. The growth rate result with ASCs [2] (ASCs pretreated with 6 mM NAC, between days 1 and 4 of post-thaw culture (FIG. 4A)) is given as “approximately 2500 cells/cm^2/day”. Besides, the “ASC modulation of mDC activation (no activation clusters)” value in assay [3] was “not disrupted”. Moreover, in the assay with ASCs [4], the “expression of ASC identity markers CD29, CD73, CD90 and CD105” value is “does not alter the expression of ASC identity markers”.

These data come from US20220104481A1, “CRYOPRESERVATION OF STEM CELLS” (TiGenix, S.A.U., priority 2019, published 2022).
